The structures appear in SMILES notation. Peptide text beside a SMILES is read from it. * marks the point of attachment. X1 = CC1(C)C(/C=C/C2=C(Oc3ccc(S(=O)(=O)O)cc3)C(=C\C=C3/N(CCCCCC(=O)NCCN4C(=O)CC(*)C4=O)c4ccc(S(=O)(=O)O)cc4C3(C)C)/CCC2)=[N+](CCCCS(=O)(=O)O)c2ccc(S(=O)(=O)[O-])cc21

In data set [1] the target is T1, Human αvβ6 (Homo sapiens, UniProt P06756+P18564).
T1 construct: purchased Bio-Techne
In words: direct integrin binding assay of peptide-IRDye conjugates, human αvβ6-coated plates. Particulars: plates coated with recombinant human αvβ6; conjugate 0.01-100 nM, 1 h; bound NIR fluorescence (Odyssey CLx); mean ± SE, n = 2 experiments. As for the experimental part:
(§1) The affinity of peptide-IRDye conjugates for αvβ6 and αvβ8 integrins was determined by a direct binding assay using microtiter plates coated with αvβ6 or αvβ8 (Bio-Techne). After 1 h of incubation, the plates were washed; bound fluorescence was quantified by scanning the plates with an Odyssey CLx near-infrared fluorescence imaging system (LI-COR). […]
(§2) The simplified molecular-input line-entry system (SMILES) of 5a-, 2a-, Cys- and 5a-Scr- […]
(§3) The concentration of each conjugate was quantified by spectrophotometric analysis at 774 nm (molar absorption coefficient, 240,000 M-1, cm-1) (Figure S3B). The final yield of 5a-IRDye […]
(§4) Binding of peptide-IRDye conjugates to avb6 and avb8 integrin
(§5) The binding affinity of peptide-IRDye conjugates for human and murine avb6 and avb8 integrins was determined as follows: 96-well clear-bottom black microtiter plates (Corning® cat. 3601) were coated with 2 μg/ml avb6 or avb8 (50 µl/well), in Dulbecco’s phosphate-buffered saline containing Ca2+ and Mg2+ (DPBS) and left to incubate overnight at 4°C. […]
(§6) conjugates were added to the microtiterplates and incubated at room temperature for 1 h (see Experimental Section). After washing, bound fluorescence was measured using an Odyssey CLx (LI-COR) scanner. Representative images of the scanned plates and quantification of binding are shown. […]

Data set [2] has as its target T2, Human αvβ8 (Homo sapiens, UniProt P06756+P26012).
T2 construct: purchased Bio-Techne
In words: direct integrin binding assay of peptide-IRDye conjugates, human αvβ8-coated plates. The conditions noted are these: plates coated with recombinant human αvβ8; conjugate 0.01-100 nM, 1 h; bound NIR fluorescence; mean ± SE, n = 2 experiments. As for the experimental part:
as §1, §2, §3, §4, §5, §6

Data set [3] is described as follows: plasma pharmacokinetics in mice. The data set is classed as in vivo. The conditions noted are these: BALB/c mice, 1 nmol i.v.; plasma fluorescence 5-1440 min; two-phase exponential decay fit; 4 mice per point. As for the experimental part: Figure S13. Plasma pharmacokinetics of 5a-IRDye in mice.
Eight BALB/c mice were divided in 2 groups (4 mice/group) and injected i.v. with 5a-IRDye (1 nmol). Their blood was then collected into heparinized tubes at 5, 30, 120, 240, and 1440 min (group 1) or after 15, 60, 180, 360, and 1440 min (group 2). Plasma samples (20 µl) were diluted with PBS (50 µl, final volume) and transferred to a black 96-well microtiter plate. The amount of fluorescence in each sample was then quantified using an Infinite 200Pro reader plate (TECAN, excitation wavelength: 766 nm; emission wavelength: 810 nm; excitation bandwidth: 9 nm; emission bandwidth: 20 nm; gain: 180 optimal (100%) and number of flashes:
25). (Dots, mean ± SE, 4 mice). Plasma half-life of 5a-IRdye was calculated using a two-phase exponential decay equation (GraphPad Prism software, San Diego California).
Chromogranin A binds to avb6-integrin and promotes wound healing in mice. Cell Mol […]
(1 picture or pasted object on this page, not shown here)

Data set [4] deals with BxPC-3 cells (αvβ6+/αvβ8-). In words: binding of peptide-IRDye conjugates to cultured BxPC-3 cells. The data set is classed as cell-based, human. The conditions noted are these: 0.32-200 nM, 1 h, 37 °C; bound NIR fluorescence.

T2 sequence (P06756 31-992 limits assumed): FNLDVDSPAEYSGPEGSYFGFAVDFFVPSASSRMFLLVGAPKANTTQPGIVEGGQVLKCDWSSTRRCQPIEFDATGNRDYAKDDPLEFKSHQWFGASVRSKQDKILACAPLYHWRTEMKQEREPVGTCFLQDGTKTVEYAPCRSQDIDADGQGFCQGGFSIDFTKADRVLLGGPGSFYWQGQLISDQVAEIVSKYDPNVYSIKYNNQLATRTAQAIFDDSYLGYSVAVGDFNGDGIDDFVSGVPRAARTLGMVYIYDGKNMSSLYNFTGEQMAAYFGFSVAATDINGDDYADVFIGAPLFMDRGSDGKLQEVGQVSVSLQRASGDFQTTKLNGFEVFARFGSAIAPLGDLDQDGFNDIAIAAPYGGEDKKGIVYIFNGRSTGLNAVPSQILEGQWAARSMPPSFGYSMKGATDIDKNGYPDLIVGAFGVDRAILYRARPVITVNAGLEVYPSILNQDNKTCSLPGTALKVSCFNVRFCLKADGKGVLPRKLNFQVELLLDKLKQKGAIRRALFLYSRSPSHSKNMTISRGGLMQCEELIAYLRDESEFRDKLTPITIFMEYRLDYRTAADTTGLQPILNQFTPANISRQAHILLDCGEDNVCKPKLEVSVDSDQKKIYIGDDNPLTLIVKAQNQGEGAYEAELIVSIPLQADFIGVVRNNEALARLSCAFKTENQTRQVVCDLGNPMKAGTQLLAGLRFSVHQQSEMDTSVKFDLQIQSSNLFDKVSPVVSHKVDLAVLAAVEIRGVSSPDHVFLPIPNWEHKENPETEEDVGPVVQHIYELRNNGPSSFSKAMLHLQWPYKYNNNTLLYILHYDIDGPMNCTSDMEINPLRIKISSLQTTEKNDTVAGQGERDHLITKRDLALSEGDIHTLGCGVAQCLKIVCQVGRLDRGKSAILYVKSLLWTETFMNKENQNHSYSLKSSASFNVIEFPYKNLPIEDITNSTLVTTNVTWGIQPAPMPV
T2 sequence (P26012 43-684 limits assumed): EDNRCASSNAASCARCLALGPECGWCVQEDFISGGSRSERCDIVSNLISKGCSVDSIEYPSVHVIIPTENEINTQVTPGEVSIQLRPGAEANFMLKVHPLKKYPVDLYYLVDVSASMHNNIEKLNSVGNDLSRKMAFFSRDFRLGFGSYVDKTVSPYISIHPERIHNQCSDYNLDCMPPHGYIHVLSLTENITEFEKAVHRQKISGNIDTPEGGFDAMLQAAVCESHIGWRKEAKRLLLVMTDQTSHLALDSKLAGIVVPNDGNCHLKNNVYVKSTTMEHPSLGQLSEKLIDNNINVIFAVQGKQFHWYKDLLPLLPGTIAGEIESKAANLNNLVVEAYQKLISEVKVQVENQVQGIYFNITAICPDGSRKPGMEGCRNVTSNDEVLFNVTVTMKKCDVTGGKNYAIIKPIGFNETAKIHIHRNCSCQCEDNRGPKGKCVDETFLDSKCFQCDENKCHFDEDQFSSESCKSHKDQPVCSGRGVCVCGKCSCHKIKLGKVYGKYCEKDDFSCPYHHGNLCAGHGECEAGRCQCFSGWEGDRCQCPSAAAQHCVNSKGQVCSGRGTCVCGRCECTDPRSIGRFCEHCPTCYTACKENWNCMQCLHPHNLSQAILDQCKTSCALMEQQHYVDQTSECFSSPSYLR
T1 sequence (P06756 31-992 limits assumed): as the sequence (P06756 31-992 limits assumed) above
T1 sequence (P18564 22-707 limits assumed): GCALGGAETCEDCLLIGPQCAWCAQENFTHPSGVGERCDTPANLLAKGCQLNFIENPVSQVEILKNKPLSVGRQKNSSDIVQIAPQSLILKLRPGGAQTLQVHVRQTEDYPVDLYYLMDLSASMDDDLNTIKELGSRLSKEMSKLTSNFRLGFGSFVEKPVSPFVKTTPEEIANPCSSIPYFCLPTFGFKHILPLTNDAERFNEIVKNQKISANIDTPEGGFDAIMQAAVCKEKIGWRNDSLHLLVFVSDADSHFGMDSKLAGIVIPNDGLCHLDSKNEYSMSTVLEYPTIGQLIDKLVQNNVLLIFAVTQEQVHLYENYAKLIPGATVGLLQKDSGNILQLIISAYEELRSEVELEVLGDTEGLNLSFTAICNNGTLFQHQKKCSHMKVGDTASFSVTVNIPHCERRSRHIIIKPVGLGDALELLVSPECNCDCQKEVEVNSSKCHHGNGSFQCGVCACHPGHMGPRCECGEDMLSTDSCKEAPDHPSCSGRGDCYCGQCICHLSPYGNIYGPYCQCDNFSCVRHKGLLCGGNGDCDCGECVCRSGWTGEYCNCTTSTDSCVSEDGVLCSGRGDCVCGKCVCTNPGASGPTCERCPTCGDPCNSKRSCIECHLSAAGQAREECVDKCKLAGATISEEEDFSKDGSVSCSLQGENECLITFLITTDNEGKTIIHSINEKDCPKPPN

Regarding `CC[C@H](C)[C@H](NC(=O)[C@H](CCCNC(=N)N)NC(=O)[C@H](CCC(=O)O)NC(=O)[C@H](CCC(=O)O)NC(=O)CNC(=O)[C@H](CCCNC(=N)N)NC(=O)[C@H](CC(C)C)NC(=O)[C@@H](NC(=O)[C@H](CCC(=O)O)NC(=O)[C@H](Cc1ccccc1)NC(=O)[C@@H](N)CSC1CC(=O)N(CCNC(=O)CCCCCN2/C(=C\C=C3\CCCC(/C=C/C4=[N+](CCCCS(=O)(=O)O)c5ccc(S(=O)(=O)[O-])cc5C4(C)C)=C3Oc3ccc(S(=O)(=O)O)cc3)C(C)(C)c3cc(S(=O)(=O)O)ccc32)C1=O)[C@@H](C)O)C(=O)N[C@@H](CC(C)C)C(=O)N[C@@H](CO)C(=O)N[C@H](C(=O)N[C@@H](CC(C)C)C(=O)N[C@@H](CCCNC(=N)N)C(=O)N[C@@H](Cc1c[nH]cn1)C(=O)N[C@@H](CCC(N)=O)C(=O)N[C@@H](CC(N)=O)C(=O)N[C@@H](CC(C)C)C(=O)N[C@@H](CC(C)C)C(=O)N[C@@H](CCCCN)C(=O)N[C@@H](CCC(=O)O)C(=O)N[C@@H](CC(C)C)C(=O)N[C@@H](CCC(N)=O)C(=O)N[C@@H](CC(=O)O)C(N)=O)[C@@H](C)CC` (stereo partly drawn) [2a-IRDye] (H-C(X1)FETLRGEERILSILRHQNLLKELQD-NH2), the EC50 in data set [1] and in data set [2] was greater than 0.1 µM in each case.

As for `CC[C@H](C)[C@H](NC(=O)[C@H](CCCNC(=N)N)NC(=O)[C@H](CC(C)C)NC(=O)[C@H](CC(=O)O)NC(=O)CNC(=O)[C@H](CCCNC(=N)N)NC(=O)[C@H](CC(C)C)NC(=O)[C@@H](NC(=O)[C@H](CCC(=O)O)NC(=O)[C@H](Cc1ccccc1)NC(=O)[C@@H](N)CSC1CC(=O)N(CCNC(=O)CCCCCN2C(=CC=C3CCCC(C=CC4=[N+](CCCCS(=O)(=O)[O-])c5ccc(S(=O)(=O)O)cc5C4(C)C)=C3Oc3ccc(S(=O)(=O)O)cc3)C(C)(C)c3cc(S(=O)(=O)O)ccc32)C1=O)[C@@H](C)O)C(=O)N[C@@H](CC(C)C)C(=O)N[C@@H](CO)C(=O)N[C@H](C(=O)N[C@@H](CC(C)C)C(=O)N[C@@H](CCCNC(=N)N)C(=O)N[C@H]1Cc2cn(nn2)CCCC[C@@H](C(=O)N[C@@H](CCCCN)C(=O)N[C@@H](CCC(=O)O)C(=O)N[C@@H](CC(C)C)C(=O)N[C@@H](CCC(N)=O)C(=O)N[C@@H](CC(=O)O)C(N)=O)NC(=O)[C@H](CC(C)C)NC(=O)[C@H](CC(N)=O)NC(=O)[C@H](CCC(N)=O)NC1=O)[C@@H](C)CC` (stereo partly drawn) [5a-IRDye], in data set [3], the plasma half-life was ~ 8 min.

Consider `CC1(C)C(/C=C/C2=C(Oc3ccc(S(=O)(=O)O)cc3)C(=C\C=C3/N(CCCCCC(=O)NCCN4C(=O)CC(SC[C@H](N)C(=O)O)C4=O)c4ccc(S(=O)(=O)O)cc4C3(C)C)/CCC2)=[N+](CCCCS(=O)(=O)O)c2ccc(S(=O)(=O)[O-])cc21` (stereo partly drawn) [Cys-IRDye], for which the EC50 in data set [1] and in data set [2] was greater than 0.1 µM in each case. Moreover, the “binding of conjugate to BxPC-3 cells” value in data set [4] was “little or no binding”.

For the origin of these results see PMC9760430, “A stapled chromogranin A-derived peptide homes in on tumors that express αvβ6 or αvβ8 integrins” (International Journal of Biological Sciences, 2023).
